Results on one substance are retold here after patent publication US8445444B2, “Compositions and methods for diagnosing, treating, and preventing prostate conditions” (Phigenix, Inc., priority 2007, dated 2013).

Holding throughout (type): cell-based, human
Assay [1] deals with DU145. Put plainly: Annexin V-FITC/propidium iodide flow cytometry. As to the method: (§1) Flow Cytometry: PC3 and DU145 cells co-transfected with the DEFB1 expression system were grown in 60-mm dishes and induced for 12, 24, and 48 hours with 10 μM Ponasterone A. Following each incubation period, the medium was collected from the plates (to retain any detached cells) and combined with PBS used to wash the plates. The remaining attached cells were harvested by trypsinization and combined with the detached cells and PBS. The cells were then pelleted at 4° C. (500×g) for 5 min, washed twice in PBS, and resuspended in 100 ul of 1× Annexin binding buffer (0.1 M Hepes/NaOH at pH 7.4, 1.4 M NaCl, 25 mM CaCl2) containing 5 μl of Annexin V-FITC and 5 μl of PI. The cells were incubated at RT for 15 min in the dark, then diluted with 400 μl of 1× Annexin binding buffer and analyzed by FACscan (Becton Dickinson, San Jose, Calif.). All reactions were performed three times.
(§2) Flow cytometry: PC3 and DU145 cells transfected with the hBD-1 expression system were grown in 60-mm dishes and induced for 12, 24, and 48 h with 10 μM Pon A. Following each incubation period, the medium was collected from the plates (to retain any detached cells) and combined with PBS used to wash the plates. The remaining attached cells were harvested by trypsinization and combined with the detached cells and PBS. The cells were then pelleted at 4° C. (500×g) for 5 min, washed twice in PBS, and resuspended in 100 μl, of 1× Annexin binding buffer (0.1 M Hepes/NaOH at pH 7.4, 1.4 M NaCl, 25 mM CaCl2) containing […] Annexin V-FITC and 5 μl of PI. The cells were incubated at RT for 15 min in the dark, then diluted with 400 μl of 1× Annexin binding buffer and analyzed by FACscan (Becton Dickinson, San Jose, Calif.). All reactions were performed three times.

The subject of assay [2] is PC3. The assay is described as follows: Annexin V-FITC/propidium iodide flow cytometry. As to the method: as §1, §2
The test system of assay [3] is PC3. The assay is described as follows: Acridine orange/ethidium bromide membrane integrity. As to the method:
Analysis of Membrane Permeability: Acridine orange (AO)/ethidium bromide (EtBr) dual staining was performed to identify changes in cell membrane integrity, as well as apoptotic cells by staining the condensed chromatin. AO stains viable cells as well as early apoptotic cells, whereas EtBr stains late stage apoptotic cells that have lost […]. Briefly, cells were seeded into 2 chamber culture slides (BD Falcon, USA). Cells transfected with empty pIND plasmid/pvgRXR or pIND DEFB1/pvgRXR were induced for 24 or 48 h with media containing 10 μM Ponasterone A. Control cells were provided fresh media at 24 and 48 h. In order to determine the effect of PAX2 inhibition on membrane integrity, separate culture slides containing DU145, PC3 and LNCaP were treated with PAX2 siRNA and incubated for 4 days. Following this, cells were washed once with PBS and stained with 2 ml of a mixture (1:1) of AO (Sigma, USA) and EtBr (Promega, USA) (5 ug/ml) solution for 5 min. Following staining, the cells were again washed with PBS. Fluorescence was viewed by a Zeiss LSM 5 Pascal Vario 2 Laser Scanning Confocal Microscope (Carl Zeiss Jena, Germany). The excitation color wheel contain BS505-530 (green) and LP560 (red) filter blocks which allowed for the separation of emitted green light from AO into the green channel and red light from EtBr into the red channel. The laser power output and gain control settings within each individual experiment were identical between control and DEFB1 induced cells. The excitation was provided by a Kr/Ar mixed gas laser at wavelengths of 543 nm for AO and 488 nm for EtBr. Slides were analyzed under 40× magnification and digital images were stored as uncompressed TIFF files and exported into Photoshop CS software (Adobe Systems, San Jose, Calif.) for image processing and hard copy presentation.
Analysis of membrane integrity: Acridine orange (AO)/ethidium bromide (EtBr) dual staining was performed to identify changes in cell membrane integrity, as well as apoptotic cells by staining the condensed chromatin. AO stains viable cells and early apoptotic cells, whereas EtBr stains late stage apoptotic cells that have compromised membranes. Briefly, PC3, DU145 and LNCaP cells were seeded into 2-chamber culture slides (BD Falcon). Cells transfected with empty plasmid or hBD-1 plasmid were induced for 24 or 48 h with media containing 10 μM Pon A, while control cells received fresh growth media at each time point. After induction, cells were washed once with PBS and stained with 2 ml of a mixture (1:1) of AO (Sigma, St. Louis, Mo.) and EtBr (Promega) (5 μg/ml) solution for 5 min and were again washed with PBS.
Fluorescence was viewed by a Zeiss LSM 5 Pascal Vario 2 Laser Scanning Confocal Microscope (Carl Zeiss). The excitation color wheel contains BS505-530 (green) and LP560 (red) filter blocks which allowed for the separation of emitted green light from AO into the green channel and red light from EtBr into the red channel. The laser power output and gain control settings within each individual experiment were identical between control and hBD-1 induced cells. The excitation was provided by a Kr/Ar mixed gas laser at wavelengths of 543 nm for AO and 488 nm for EtBr. Slides were analyzed under 40× magnification and digital images were stored as uncompressed TIFF files and exported into Photoshop CS software (Adobe Systems) for image processing and hard copy presentation. […]

With “DEFB1: human beta defensin-1 expressed from the ecdysone inducible pIND/DEFB1 construct, induced with Ponasterone A (DHYNCVSSGGQCLYSACPIFTKIQGTCYRGKAKCCK; UniProt P60022 33-68, looked up)”, the “number of apoptotic cells (lower and upper right quadrants)” value in assay [1] (DU145, 12 h DEFB1 (hBD-1) induction) is on record as 12%; in assay [1] (DU145, 24 h) it was 34%; in assay [1] (DU145, 48 h), 59%; in assay [2] (PC3, 12 h DEFB1 (hBD-1) induction), 10%; in assay [2] (PC3, 24 h) it was 20%; in assay [2] (PC3, 48 h) it was 44%. For the same substance, the “membrane integrity (AO/EtBr staining)” value in assay [3] (PC3, 24 h DEFB1 (hBD-1) induction) is “accumulation of EtBr in the cytoplasm”; in assay [3] (PC3, 48 h DEFB1 (hBD-1) induction), “condensed nuclei and appeared yellow”.
